Starred links: 1 amine or outer side, 2 acyl side, 3 side chain; linkers in the order of their positions; H or OH if unused. Positions of bridges follow the written chain, without caps; N, C: chain ends. Non-standard residues stand in square brackets, D forms with d. Residues, ends and D or L forms follow the SMILES beside them. *: point of attachment. hTyr(3S-OH,4S-OH,3'-OSO3H) = N[C@H](C(=O)O)[C@H](O)[C@@H](O)c1ccc(O)c(OS(=O)(=O)O)c1; Orn(4R-OH,5R-OH) = O=C([C@H](C[C@@H](O)[C@@H](O)N[*:3])N[*:1])[*:2]; Pro(3S-OH,4S-Me) = C[C@H]1CN[C@H](C(=O)O)[C@H]1O; X1 = CCCCCOc1ccc(-c2cc(-c3ccc(C(=O)*)cc3)no2)cc1; Gln(3R-OH) = NC(=O)C[C@@H](O)[C@H](N)C(=O)O; Hyp = O=C(O)[C@@H]1C[C@@H](O)CN1 A value given as a limit tells only on which side of the number the result lay.

Data set [1] relates to CHIKV. The note with it: cited from earlier work.
Data set [2] deals with CHIKV. The note with it: read-out: EC50 against CHIKV; cited from earlier work.
Data set [3] is described as follows: Cytotoxicity by MTT assay in Vero cells. The note with it: African green monkey. (In general: Tetrazolium assays rely on reduction of a dye to a coloured formazan, in cell work by metabolically active cells.)
Data set [4] has as its system CHIKV BRA/RJ/18. Put plainly: Antiviral evaluation against CHIKV BRA/RJ/18 replication in Vero cells (plaque assay). Type of data set: cell-based, Chikungunya virus. The note with it: for EC50 / inhibition at 50 µM: Chikungunya virus, Vero; for EC50: 24 h, read-out: CHIKV BRA/RJ/18 EC50; for CHIKV BRA/RJ/18 EC50: Vero cells, MOI 1, 24 h; for inhibition at 50 µM: read-out: CHIKV BRA/RJ/18 inhibition (%); for CHIKV BRA/RJ/18 SI (selectivity index): ratio between CC50 and EC50 values.

The subject of data set [5] is CHIKV 181-25 strain. Put plainly: Antiviral screening against CHIKV 181-25 replication in Vero cells (plaque assay). The format is cell-based, Chikungunya virus. The note with it: inhibition rate of CHIKV replication at 50 μM, % relative to control, 24 hpi; for inhibition at 50 µM: Chikungunya virus; for CHIKV 181-25 inhibition (%): 50 µM. Here is the method: DMSO (0.5%) was used as vehicle control, while CQ (50 μM) was used as a positive control due to its in vitro antiviral activity against CHIKV.[57]
Finally, the overlay medium was removed, and cells were fixed and stained with 10% formaldehyde and 0.2% crystal violet. Plaques were counted, and virus titers were determined as PFU/mL. Inhibition rates were determined by comparing the number of PFU of infected and treated cells and infected and untreated cells (100% infectivity).

Data set [6] deals with CHIKV BRA/RJ/18. Kind of data set: Entry assay. The note with it: Chikungunya virus, read-out: inhibition rate in virus entry assay.
Data set [7] has as its system CHIKV BRA/RJ/18. Kind of data set: Attachment assay. The note with it: Chikungunya virus, read-out: inhibition rate in attachment assay.
The test system of data set [8] is human herpesvirus 8. The note with it: read-out: EC50 against human herpesvirus 8; cited from earlier work.
Data set [9] has as its system rats. The note with it: doses up to 10 g/kg; cited from earlier work.
In data set [10] the test system is CHIKV BRA/RJ/18. Put plainly: Virucidal assay. The note with it: 50 μM, 2 × 10^5 PFU treated 2 h at 37 °C. Type of data set: cell-based, Chikungunya virus.
Data set [11] concerns CHIKV BRA/RJ/18. Kind of data set: Virus release assay. The note with it: 50 μM, 6 hpi.
The subject of data set [12] is Zika virus. The note with it: read-out: EC50 against Zika virus; cited from earlier work.
Data set [13] relates to mice. The note with it: doses up to 10 g/kg; cited from earlier work.
The conditions of data set [14]: single oral dose of 400 mg; cited from earlier work.
The subject of data set [15] is CHIKV BRA/RJ/18. Put plainly: Time-of-drug addition assay. Type of data set: cell-based. The note with it: Chikungunya virus.

Turning to `CCCc1nc2c(C)cc(-c3nc4ccccc4n3C)cc2n1Cc1ccc(-c2ccccc2C(=O)O)cc1` [telmisartan], the “effect on CHIKV infection in mice” value in data set [1] was “ameliorate CHIKV infection in mice”. Also, in [2], the EC50 was 15.3 µM.

Usually CC50 stands for the concentration giving 50% cytotoxicity. As for `CCCSc1ccc2nc(NC(=O)OC)[nH]c2c1` [ABZ, albendazole], the CC50 at 72 h in [3] is more than 500 µM. Moreover, in data set [4], the EC50 was more than 50 µM and the “CHIKV BRA/RJ/18 EC50” value is “none exhibited anti-CHIKV activity”.

With `CCCCCOc1ccc(-c2cc(-c3ccc(C(=O)N[C@H]4C[C@@H](O)[C@@H](O)NC(=O)[C@@H]5[C@@H](O)[C@@H](C)CN5C(=O)[C@H]([C@H](O)CC(N)=O)NC(=O)[C@H]([C@H](O)[C@@H](O)c5ccc(O)c(OS(=O)(=O)O)c5)NC(=O)[C@@H]5C[C@@H](O)CN5C(=O)[C@H]([C@@H](C)O)NC4=O)cc3)no2)cc1` [micafungin] (X1-[Orn(4R-OH,5R-OH)]T[Hyp][hTyr(3S-OH,4S-OH,3'-OSO3H)][Gln(3R-OH)][Pro(3S-OH,4S-Me)]; lactam 1-C), the EC50 in data set [2] was 20.6 µM.

For the molecule `CCCCCOC(=O)Nc1nc(=O)n([C@@H]2O[C@H](C)[C@@H](O)[C@H]2O)cc1F` [CPB, capecitabine], in [5], the inhibition at 50 µM is 0% and the “CHIKV 181-25 inhibition (%)” value is recorded as “did not present antiviral activity”. The “CHIKV 181-25 inhibition (%)” value in [5] (listed as CPD) is “did not inhibit CHIKV replication”.

As to `COC(=O)Nc1nc2ccc(Sc3ccccc3)cc2[nH]1` [FBZ, fenbendazole], in data set [3], the CC50 at 72 h is more than 500 µM. Further, in data set [4], the EC50 is more than 50 µM and the “CHIKV BRA/RJ/18 EC50” value is given as “none exhibited anti-CHIKV activity”.

For the molecule `CCCOc1ccc2nc(NC(=O)OC)[nH]c2c1` [OBZ, oxibendazole], the inhibition at 50 µM in data set [6] is 33.8%; in data set [7] it was 13.1%; in data set [4], 61.8 ± 2.7%; in data set [5], 66.4 ± 2.5%; in data set [15] (read-out: inhibition rate in time-of-addition assay, 50 μM, added after 4 hpi until 10 hpi) it was approximately 40%; in [15] (read-out: inhibition rate in time-of-addition assay, 50 μM, added until 4 hpi), approximately 55%. Also, the EC50 in data set [8] was 1.5 µM; in data set [4], 11.4 ± 3.2 µM; in data set [12], 0.7 µM. This molecule also displayed a CC50 at 72 h in data set [3] of more than 500 µM. For the same molecule, the “CHIKV BRA/RJ/18 SI (selectivity index)” value in data set [4] was more than 44.0. Besides, the “lethality (LD50 not determinable)” value in data set [9] and in [13] was “no deaths were reported” throughout. Besides, in data set [10], the virucidal effect entry is “no virucidal effects were observed”. For the same molecule, the “intracellular/extracellular ratio of virus titers” value in data set [11] is on record as 3.78. Also, in [14], the “side effects in clinical trials” value is given as “low frequency of side effects”.

Consider `CCCCCCCCCCC[C@@H](C[C@@H]1OC(=O)[C@H]1CCCCCC)OC(=O)[C@H](CC(C)C)NC=O` [orlistat], for which the EC50 in [2] was 0.82 µM.

On to `Cc1ccc(C(=O)Nc2ccc(S(=O)(=O)O)c3cc(S(=O)(=O)O)cc(S(=O)(=O)O)c23)cc1NC(=O)c1cccc(NC(=O)Nc2cccc(C(=O)Nc3cc(C(=O)Nc4ccc(S(=O)(=O)O)c5cc(S(=O)(=O)O)cc(S(=O)(=O)O)c45)ccc3C)c2)c1` [suramin], for which the “effect on CHIKV infection in mice” value in data set [1] is “ameliorate CHIKV infection in mice”. The EC50 in [2] was 21.5 µM.

`COC(=O)Nc1nc2ccc(C(=O)c3ccccc3)cc2[nH]1` [MBZ, mebendazole]: in data set [3], the CC50 at 72 h was more than 500 µM. In addition, in data set [4], the EC50 was more than 50 µM and the “CHIKV BRA/RJ/18 EC50” value is “none exhibited anti-CHIKV activity”.

With `CC(=O)Oc1ccccc1C(=O)Nc1ncc([N+](=O)[O-])s1` [nitazoxanide], in data set [2], the EC50 was 2.96 µM.

Take `CC(C)OC(=O)[C@H](C)N[P@](=O)(OC[C@H]1O[C@@H](n2ccc(=O)[nH]c2=O)[C@](C)(F)[C@@H]1O)Oc1ccccc1` [sofosbuvir]: the “effect on CHIKV infection in mice” value in data set [1] is reported as “ameliorate CHIKV infection in mice”. In data set [2], the EC50 is 2.7 µM.

`CCN(CC)CCCC(C)Nc1ccnc2cc(Cl)ccc12` (stereo not drawn) [CQ, chloroquine] returned a CC50 at 72 h in [3] of 469 ± 84.4 µM. Also, in data set [4], the EC50 came out at 47.5 ± 10.2 µM, the inhibition at 50 µM was 48.5 ± 11.7% and the “CHIKV BRA/RJ/18 SI (selectivity index)” value is 9.9. The molecule also came in with an inhibition at 50 µM in data set [5] of 98.2 ± 0.2%.

The record behind these values is publication PMC11209700, “In Silico Drug Repurposing Uncovered the Antiviral Potential of the Antiparasitic Drug Oxibendazole Against the Chikungunya Virus” (ACS Omega, 2024).
